The record followed here is US20260306460A1, “COMPOSITION FOR REMOVING AND INHIBITING SENESCENT CELLS, AND USES THEREOF” (LIFECEUTIX CO., LTD., priority 2023, published 2026).

One assay deals with naturally aged mice. Briefly: Anti-aging evaluation in naturally aged mice, Example 31, Table 55.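 As to all read-outs here: Vehicle-dosed control mice received solution alone at matching volume, values compare test-compound-treated aged mice against that control.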 It is filed as in vivo, mouse. To be noted: for Femur Ctsk mRNA / Kidney Agtr1a mRNA / Liver IL6 mRNA / Liver MMP3 mRNA / Liver p16 mRNA / Open Field Test Time in Center: untreated = 100%; for Heart Sur2a mRNA / Joint Col2a1 mRNA / Skin Col1a1 mRNA / Skin SDF1 mRNA: untreated = 1.0; for Muscle Mass: untreated 0.64 g; for Fat Mass: untreated 0.82 g; for Cataract incidence: untreated 83%.

The test system of the next assay is senescent cells. Briefly: Viability of senescent cells (CellTiter-Glo), Example 17, Table 13. The settings on record: Homo sapiens, read-out: Survival (%). In general terms: Cellular ATP, detected with luciferase, serves as a proxy for viable cell number.

Protocol for naturally aged mice: After the end of drug administration, the method described in each example below was performed. […] The mRNA amounts of p16, MMP3, and IL6 after natural aging was induced were calculated as 100% and compared with the mRNA amounts of p16, MMP3, and IL6 after treatment with the test compound. In addition, an open field test for the analysis of aging-related frailty, agtr1a mRNA analysis for kidney damage and disease evaluation, col1a1 and SDF1 mRNA analysis for skin aging evaluation such as wrinkles/loss of elasticity/hyperpigmentation, col2a1 mRNA analysis for evaluating joint aging such as osteoarthritis, sur2a mRNA analysis for evaluating cardiac aging such as decreased cardiac load resistance, ctsk mRNA analysis for evaluating bone diseases due to aging such as osteoporosis, muscle tissue weight for analyzing sarcopenia, fat tissue weight for analyzing lipoatrophy, and cataract incidence analysis were performed in mice. For cataract incidence analysis, the drug was administered twice a week under the conditions specified above, and biweekly examinations were conducted until death.
Protocol for senescent cells: Cells induced to undergo senescence by doxorubicin treatment were treated with test compound at designated concentrations and measured using the CellTiter-Glo Luminescent Cell Viability Assay (Promega).

Turning to `C#CC(=O)N1[C@@H](CCCC)Cc2cc(OC)ccc2[C@@H]1c1ccc(NC23CC4CC(CC(C4)C2)C3)cc1` [LX-5411], in the assay with naturally aged mice, the “Femur Ctsk mRNA” value came to 71%, the “Heart Sur2a mRNA” value is 2.5 fold, the “Joint Col2a1 mRNA” value is 2.0 fold and the “Kidney Agtr1a mRNA” value is reported as 68%. For the same compound, in the assay on naturally aged mice, the “Liver IL6 mRNA” value worked out at 63%, the “Liver MMP3 mRNA” value came out at 58%, the “Liver p16 mRNA” value is 65% and the “Open Field Test Time in Center” value worked out at 214%. For the same compound, in the assay on naturally aged mice, the “Skin Col1a1 mRNA” value is listed as 1.6 Fold, the “Skin SDF1 mRNA” value stood at 1.9 fold, the “Muscle Mass” value was found to be 0.74 g and the “Fat Mass” value is given as 1.21 g. The compound further gave a Cataract incidence with naturally aged mice of 52%. In the assay on senescent cells, the viability at 1.1 µM came to 75.4% and the viability at 10 µM was determined as 2.8%.
Take `S=C(N/N=C1\CCCc2cccnc21)N1CCN(c2ccccn2)CC1` [LX-801]: in the assay on naturally aged mice, the “Femur Ctsk mRNA” value was found to be 70%, the “Heart Sur2a mRNA” value amounted to 2.8 fold, the “Joint Col2a1 mRNA” value is 2.7 fold and the “Kidney Agtr1a mRNA” value is recorded as 55%. In the assay on naturally aged mice, the “Liver IL6 mRNA” value came out at 64%, the “Liver MMP3 mRNA” value was 35%, the “Liver p16 mRNA” value is listed as 53% and the “Open Field Test Time in Center” value is given as 222%. For the same compound, in the assay on naturally aged mice, the “Skin Col1a1 mRNA” value came to 2.1 Fold, the “Skin SDF1 mRNA” value stood at 2.1 fold, the “Muscle Mass” value is listed as 0.77 g and the “Fat Mass” value is 1.09 g. The Cataract incidence in the assay on naturally aged mice stood at 57%.
As to `O=C(C(C[N+](=O)[O-])=NO)N1CCN(C(c2ccc(Cl)cc2)c2ccc(Cl)cc2)CC1` [LX-403], in the assay on naturally aged mice, the “Femur Ctsk mRNA” value was found to be 22%, the “Heart Sur2a mRNA” value is given as 2.9 fold, the “Joint Col2a1 mRNA” value was determined as 3.4 fold and the “Kidney Agtr1a mRNA” value turned out to be 64%. In addition, in the assay with naturally aged mice, the “Liver IL6 mRNA” value was determined as 53%, the “Liver MMP3 mRNA” value worked out at 45%, the “Liver p16 mRNA” value turned out to be 34% and the “Open Field Test Time in Center” value is 237%. Moreover, in the assay on naturally aged mice, the “Skin Col1a1 mRNA” value came out at 2.8 Fold, the “Skin SDF1 mRNA” value came out at 2.7 fold, the “Muscle Mass” value came to 0.76 g and the “Fat Mass” value amounted to 0.98 g. For the same compound, the Cataract incidence in the assay on naturally aged mice was found to be 64%.
Regarding `COC(=O)[C@H]1Cc2c([nH]c3ccccc23)[C@H](c2ccc(S(C)(=O)=O)cc2)N1C(=O)CCl` [LX-5401, methyl (1S,3R)-2-(2-chloroacetyl)-1-(4-(methylsulfonyl)phenyl)-2,3,4,9-tetrahydro-1H-pyrido[3,4-b]indole-3-carboxylate], in the assay with naturally aged mice, the “Femur Ctsk mRNA” value worked out at 42%, the “Heart Sur2a mRNA” value is 1.7 fold, the “Joint Col2a1 mRNA” value worked out at 1.6 fold and the “Kidney Agtr1a mRNA” value was found to be 73%. For the same compound, in the assay with naturally aged mice, the “Liver IL6 mRNA” value is 55%, the “Liver MMP3 mRNA” value turned out to be 81%, the “Liver p16 mRNA” value turned out to be 73% and the “Open Field Test Time in Center” value stood at 179%. Besides, in the assay with naturally aged mice, the “Muscle Mass” value is 0.69 g, the “Fat Mass” value is 0.89 g and the Cataract incidence worked out at 77%. In the assay on senescent cells, the viability at 1.1 µM was found to be 99.5%, the viability at 10 µM is 66% and the viability at 30 µM was determined as 24.6%.
On to `C[C@@H]1CC[C@@]23C[C@H](O)C(=O)[C@@]2(O)[C@]1(C)[C@H](OC(=O)CCl)C[C@@H](C1=CCn2c(=O)n(-c4ccccc4)c(=O)n2C1)[C@@H]3C` [LX-1801, (2S,3aS,4S,5R,7R,8S,8aS,11R)-7-(1,3-Dioxo-2-phenyl-2,3,5,8-tetrahydro-1H-[1,2,4]triazolo[1,2-a]pyridazin-6-yl)-2,3a-dihydroxy-4,8,11-trimethyl-3-oxooctahydro-1H-4,8a-propanoazulen-5-yl 2-Chloroacetate], for which, in the assay with naturally aged mice, the “Femur Ctsk mRNA” value amounted to 69%, the “Heart Sur2a mRNA” value amounted to 2.7 fold, the “Joint Col2a1 mRNA” value worked out at 2.6 fold and the “Kidney Agtr1a mRNA” value was determined as 48%. In the assay on naturally aged mice, the “Liver IL6 mRNA” value came to 53%, the “Liver MMP3 mRNA” value came out at 49%, the “Liver p16 mRNA” value is recorded as 42% and the “Open Field Test Time in Center” value is listed as 287%. In the assay on naturally aged mice, the “Skin Col1a1 mRNA” value was found to be 1.9 Fold, the “Skin SDF1 mRNA” value amounted to 2.2 fold, the “Muscle Mass” value is 0.78 g and the “Fat Mass” value is 1.16 g. In the assay with naturally aged mice, the Cataract incidence is recorded as 35%.
